# Experimental data as given in patent US8518995B2, “Methods and compositions for the treatment of irritable bowel syndrome” (MediciNova, Inc., priority 2010, dated 2013).
# Assays:
# [1] = system: subjects suffering from IBS; test: Effects of MN-221 on human esophageal peristalsis (manometry, heart rate, finger tremor) in IBS subjects; type: in vivo
# Source text: This study investigates the inhibitory influence of beta-2-adrenergic stimulation by MN-221 on esophageal motility with little to no incidence of significant adverse side effects. In the study, esophageal peristalsis is studied in subjects suffering from IBS. The subjects have no history of gastrointestinal or cardiovascular disease. Subjects are considered to have the irritable bowel syndrome if they have an abdominal pain with or without diarrhea or constipation. Relief of pain by defecation, abdominal distension, a feeling of incomplete evacuation, and/or a response to a high-residue diet are taken as useful additional symptoms. The blood picture, erythrocyte sedimentation rate, and results of sigmoidoscopy, rectal biopsy, and barium enema are normal in all subjects. The symptoms of the subjects, including dysphagia and heartburn, are recorded on data sheets for correlation with manometric findings.
# Each subject is orally given MN-221, 5 mg three times daily, for 10 days. […] At each session esophageal peristaltic pressure, heart rate, and finger tremor are assessed.
# Manometric studies are performed with a triple-lumen tube with each channel perfused with water, 0.5 ml/min, via a low-compliance capillary system. […] Thus, pressure is recorded about 18 cm proximal to the LES (proximal esophagus), about 10 cm proximal to the LES (middle esophagus), and about 2 cm proximal to the LES (distal esophagus).
# After a resting period of 20 min., esophageal peristalsis in response to 20 wet swallows (water bolus of 5 ml, room temperature) is recorded. […] Each recording curve is coded and read by one investigator who is not aware of the subject's study day. The amplitude of the peristaltic pressure waves is measured at each recording point, and an individual mean value for the 20 swallows is calculated for each examination.
# At each session, heart rate is recorded in the resting subject and calculated as a mean value for 2 min. Finger tremor are assessed with an optical method (e.g., Opto-Tremor Graph, Draco), and the middle finger of the right hand is chosen for measurement. […]
# [2] = system: subjects with the irritable bowel syndrome (IBS); test: Effects of MN-221 on rectosigmoid motility (intraluminal pressure, systemic effects, plasma levels) in IBS subjects; type: in vivo, human
# Source text: In this study, subjects with the irritable bowel syndrome (IBS) are studied with regard to the effects of MN-221 on rectosigmoid motility.
# Men and women aged 24-52 years are included in the study. The diagnosis of IBS is made on the basis of the following criteria: 1) symptoms lasting more than few months; 2) abdominal pain with or without relation to meals; 3) constipation or a combination of diarrhea and constipation; 4) normal colonic barium enema and sigmoidoscopy; 5) negative test for lactose intolerance; and 6) negative finding on stool culture.
# The subjects are all symptomatic at the time of the study. The subjects are taking no medications of significant importance for intestinal motility. Informed consent is obtained from each subject.
# After a 12 hours fast, all subjects undergo sigmoidoscopy without air insufflations. A probe with one to three polyethylene catheters is inserted through the sigmoidoscope so that the proximal catheter is about 18-20 centimeter (cm) from the anal margin, the tip of the second catheter about 5 cm below, and the third catheter is positioned just inside the internal sphincter. An about 5-cm-long balloon surrounds each of the two distal catheters. The distal balloon is inflated with about 20 milliliter (mL) of air to prevent the device from moving in the distal direction. The balloon in the upper rectum, connected to the middle catheter, is kept inflated with about 80 ml of air in 10 of the subjects and with about 60 mL in the other 2 subjects throughout the recording sessions. Each subject has the same balloon volume during the three examinations.
# Intra-luminal pressure is measured from the proximal rectal balloon and the sigmoid catheter (inside diameter, about 1.67 millimeter (mm)), which is open tipped with a side orifice of about 1.5 mm diameter.
# The catheter is continuously perfused with body-temperature water at 3.5 mL/h by means of an infusion pump. Pressure is transmitted to transducers (e.g., Statham P 23 Db, Statham Instruments, Hato Ray, Puerto Rico) and recorded on a Grass RPS 7C polygraph (e.g., Grass Instrument Co., Quincy, Mass.). To determine motility, the area under the pressure curves is continuously determined by integrators (such as, e.g., Grass 7P 10). As an index of contractile activity, the total area minus the area under an estimated basal pressure line is used. The principle for motility calculation is described in detail in Abrahamsson et al. Dig Dis Sci 1983, 28, 590-594.
# Motility index is expressed as kPa×min (1 kPa×min=7.5 mm Hg×min). The study is randomized and double blinded. Each subject is investigated on 3 different days with not less than 5 days between each investigation to avoid any possible influence of an earlier drug infusion. After an initial rest period of 30 minutes (min), pressure is quantified for three periods of 25 min. The first period, designated the control period, is preceded by saline infusion, 1 mL/min, for 5 min. The following two test periods are each preceded by an infusion of 0.25 mg MN-221 intravenously to a total amount of 0.50 mg on the 1st day, 1.0 mg on the 2nd day, and 5 ml placebo (plus 5 mL saline) on the 3rd day.
# The blood pressure and heart rate are measured by a sphygmomanometer 10 and 25 min after the end of each drug infusion. […]
# Results are expressed as the mean±SEM. […]
# The plasma concentration of MN-221 is determined by liquid chromatography and mass spectrometry.
# [3] = system: subjects with the irritable bowel syndrome (IBS); conditions: including increase in systolic blood pressure and the heart rate; cited from earlier work
# [4] = system: subjects suffering from IBS; conditions: including increase in the heart rate and finger tremors; cited from earlier work
# [5] = during oral medication, 5 mg three times daily, 10 days
Structure (SMILES),"finger tremor [1, 5]","heart rate [1, 5]","adverse side effects ([1]; oral medication, IBS subjects)",complaints or discomfort among the subjects ([2]; after infusion of MN-221),"plasma concentrations ([2]; after intravenous infusion, 0.50 and 1.0 mg total)",systolic and diastolic blood pressure and heart rate ([2]; infusion to a total of 0.50 mg intravenously),systolic and diastolic blood pressure and heart rate ([2]; infusion to a total of 1.0 mg intravenously),"adverse side effects ([2]; intravenous infusion, IBS subjects)",adverse side effects (comparison drug) [3],adverse side effects (comparison drug) [4]
"CN(C)C(=O)COc1ccc2c(c1)CC(NCC(O)c1ccc(O)c(CCO)c1)CC2 (single isomer, unassigned; (-)) [MN-221]",do not change,do not change,little to no adverse side effects,No major complaints or discomfort,within the therapeutic levels,no significant increase in the systolic blood pressure; decrease in the diastolic blood pressure; and/or increase in the heart rate,no significant increase in systolic blood pressure; decrease in diastolic blood pressure; and/or increase in heart rate,little to no adverse side effects,–,–
CC(C)(C)NCC(O)c1cc(O)cc(O)c1 (stereo not shown) [terbutaline],–,–,–,–,–,–,–,–,undesirable incidence of significant adverse side effects,undesirable incidence of significant adverse side effects
